Where two headings read alike, the source gives them in different places.
Biological target: T1, human α7 nAChR (Homo sapiens, UniProt P36544)
T1 construct: host or cells: HEK
Experiment: Automated patch-clamp electrophysiology functional assay (Assay A)
Type: cell-based
Conditions: HEK cell line stably expressing human RIC-3 and human α7, IonFlux HT whole-cell population patch, with or without 40 μM acetylcholine
Summary of the method: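 Whole-cell population patch clamp at −60 mV, room temperature, on HEK cells stably co-expressing human α7 and RIC-3; compounds tested at three ascending concentrations per recording, alone (agonism) or with 40 μM acetylcholine (potentiation). Currents normalised to an initial 1 s 40 μM acetylcholine response; EC50 from concentration series.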

T1 sequence (P36544 23-502): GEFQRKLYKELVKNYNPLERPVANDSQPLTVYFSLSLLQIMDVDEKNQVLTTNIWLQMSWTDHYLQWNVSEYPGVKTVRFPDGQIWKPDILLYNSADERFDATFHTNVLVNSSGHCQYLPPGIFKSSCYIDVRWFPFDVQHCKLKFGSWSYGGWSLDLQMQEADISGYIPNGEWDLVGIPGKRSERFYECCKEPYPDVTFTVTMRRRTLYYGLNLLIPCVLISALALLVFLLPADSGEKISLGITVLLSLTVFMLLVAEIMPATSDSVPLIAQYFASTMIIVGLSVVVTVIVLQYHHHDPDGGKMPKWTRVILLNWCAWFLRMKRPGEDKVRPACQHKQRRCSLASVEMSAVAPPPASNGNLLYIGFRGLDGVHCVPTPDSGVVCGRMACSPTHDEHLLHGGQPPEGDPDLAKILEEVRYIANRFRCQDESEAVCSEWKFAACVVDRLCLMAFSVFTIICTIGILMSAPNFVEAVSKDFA

| Compound | EC50 (read-out: α7 nAChR EC50) | EC50 (read-out: α7 nAChR Potency) |
| --- | --- | --- |
| CC(C)c1cccc(OC[C@@H]2CC23CCN(S(N)(=O)=O)CC3)n1 [Example A53, (1R)-1-({[6-(propan-2-yl)pyridin-2-yl]oxy}methyl)-6-azaspiro[2.5]octane-6-sulfonamide] | 640 nM | 500 to 5000 nM |
| NS(=O)(=O)N1CCC2(CC1)C[C@@H]2COc1noc(-c2ccccc2)n1 [Example A13, (1S)-1-{[(5-phenyl-1,2,4-oxadiazol-3-yl)oxy]methyl}-6-azaspiro[2.5]octane-6-sulfonamide] | 4100 nM | 500 to 5000 nM |
| CC(C)(O)c1cccc(OC[C@@H]2CC23CCN(S(N)(=O)=O)CC3)n1 [Example A52, (1R)-1-({[6-(2-hydroxypropan-2-yl)pyridin-2-yl]oxy}methyl)-6-azaspiro[2.5]octane-6-sulfonamide] | 480 nM | 100 to 500 nM |
| COc1ccc(Cl)cc1NC(=O)[C@H]1C(F)(F)C12CCN(S(N)(=O)=O)CC2 [Example B3, (1S)—N-(5-chloro-2-methoxyphenyl)-2,2-difluoro-6-sulfamoyl-6-azaspiro[2.5]octane-1-carboxamide] | 1400 nM | 500 to 5000 nM |
| CCOc1cccc(OC[C@@H]2CC23CCN(S(N)(=O)=O)CC3)n1 [Example A54, (1R)-1-{[(6-ethoxypyridin-2-yl)oxy]methyl}-6-azaspiro[2.5]octane-6-sulfonamide] | 450 nM | 100 to 500 nM |
| CS(=O)(=O)c1cccc(OC[C@@H]2CC23CCN(S(N)(=O)=O)CC3)n1 [Example A45, (1R)-1-({[6-(methylsulfonyl)pyridin-2-yl]oxy}methyl)-6-azaspiro[2.5]octane-6-sulfonamide] | – | 5000 to 50000 nM |
| NS(=O)(=O)N1CCC2(CC2COc2cccc(OCC(F)(F)F)n2)C(F)(F)C1 (racemic) [Example A39, 4,4-difluoro-1-({[6-(2,2,2-trifluoroethoxy)pyridin-2-yl]oxy}methyl)-6-azaspiro[2.5]octane-6-sulfonamide] | 310 nM | 100 to 500 nM |

— patent US12331022B2, “Spiropiperidine allosteric modulators of nicotinic acetylcholine receptors” (Merck Sharp & Dohme LLC, priority 2019, dated 2025)
